Measured values as given in patent publication US20220274991A1, “SMALL MOLECULE INHIBITORS OF KU70/80 AND USES THEREOF” (Arizona Board of Regents on Behalf of the University of …, priority 2019, published 2022).

Target: T1, Ku70/80 (Homo sapiens, UniProt P12956+P13010)
T1 construct: purchased AMRI
Assay: EMSA IC50 (AMRI Ku70/80)
Format: binding
Details: Hill equation fitted

T1 sequence (P12956 whole entry): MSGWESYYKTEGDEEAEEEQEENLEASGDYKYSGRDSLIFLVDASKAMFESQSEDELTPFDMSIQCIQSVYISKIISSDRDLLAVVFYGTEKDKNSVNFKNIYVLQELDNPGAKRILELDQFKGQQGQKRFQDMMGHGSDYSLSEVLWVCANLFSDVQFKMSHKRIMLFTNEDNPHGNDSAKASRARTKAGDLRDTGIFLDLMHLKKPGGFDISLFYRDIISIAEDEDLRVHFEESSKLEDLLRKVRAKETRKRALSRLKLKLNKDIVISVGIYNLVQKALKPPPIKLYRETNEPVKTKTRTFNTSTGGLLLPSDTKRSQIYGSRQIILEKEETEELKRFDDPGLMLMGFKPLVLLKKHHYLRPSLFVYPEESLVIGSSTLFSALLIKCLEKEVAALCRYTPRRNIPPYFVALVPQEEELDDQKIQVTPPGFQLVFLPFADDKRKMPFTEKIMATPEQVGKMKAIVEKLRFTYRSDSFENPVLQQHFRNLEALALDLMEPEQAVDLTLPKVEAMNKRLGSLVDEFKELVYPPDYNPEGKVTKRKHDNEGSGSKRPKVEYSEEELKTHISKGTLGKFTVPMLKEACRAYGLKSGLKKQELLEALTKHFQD
T1 sequence (P13010 whole entry): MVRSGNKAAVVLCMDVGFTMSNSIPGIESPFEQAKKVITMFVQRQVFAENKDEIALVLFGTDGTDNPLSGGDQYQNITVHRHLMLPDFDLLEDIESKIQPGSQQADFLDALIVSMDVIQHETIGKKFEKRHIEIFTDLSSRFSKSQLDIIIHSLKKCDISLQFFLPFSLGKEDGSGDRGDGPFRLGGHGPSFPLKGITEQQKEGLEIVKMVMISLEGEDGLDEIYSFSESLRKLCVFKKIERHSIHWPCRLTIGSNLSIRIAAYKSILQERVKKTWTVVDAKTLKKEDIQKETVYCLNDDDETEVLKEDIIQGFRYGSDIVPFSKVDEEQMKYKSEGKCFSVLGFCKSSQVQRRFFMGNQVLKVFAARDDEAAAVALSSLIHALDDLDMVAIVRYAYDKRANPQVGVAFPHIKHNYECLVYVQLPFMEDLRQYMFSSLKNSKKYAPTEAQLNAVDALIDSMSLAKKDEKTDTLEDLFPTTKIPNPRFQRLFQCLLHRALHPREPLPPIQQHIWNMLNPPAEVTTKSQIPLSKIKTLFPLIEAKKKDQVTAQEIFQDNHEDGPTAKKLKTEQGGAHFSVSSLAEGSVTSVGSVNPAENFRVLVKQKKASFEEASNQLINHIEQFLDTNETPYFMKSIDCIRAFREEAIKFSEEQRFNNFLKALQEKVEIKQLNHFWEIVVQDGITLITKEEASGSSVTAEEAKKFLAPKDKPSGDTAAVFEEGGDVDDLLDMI

Row | IC50 | SMILES
1 | 50 µM | NS(=O)(=O)c1ccc(CCNc2ncc3c(=O)n(-c4cccc(F)c4)c(=O)[nH]c3n2)cc1
2 | 196 µM | O=C(O)c1ccc(CNc2ncc3c(=O)n(-c4cccc(F)c4)c(=O)[nH]c3n2)cc1
3 | 245 µM | O=c1[nH]c2nc(NCCc3cccc(F)c3)ncc2c(=O)n1-c1cccnc1
4 | 40 µM | O=c1[nH]c2nc(NCCc3cccnc3)ncc2c(=O)n1-c1cccc(F)c1
5 | 58 µM | O=c1[nH]c2nc(NCCc3cccc(F)c3)ncc2c(=O)n1-c1ccccn1
6 | 18 µM | O=c1[nH]c2nc(NCCc3ccncc3)ncc2c(=O)n1-c1cccc(F)c1
7 | 18 µM | O=c1[nH]c2nc(NCCc3ccccn3)ncc2c(=O)n1-c1cccc(F)c1
8 | 9.1 µM | O=c1[nH]c2nc(NCCc3ccc4c(c3)OCO4)ncc2c(=O)n1-c1cccc(F)c1
9 | 20 µM | O=c1[nH]c2nc(NCCc3ccc4c(c3)OC(F)(F)O4)ncc2c(=O)n1-c1cccc(F)c1
10 | 20 µM | O=c1[nH]c2nc(NCCc3ccc4c(c3)OCCO4)ncc2c(=O)n1-c1cccc(F)c1
11 | 28 µM | O=c1[nH]c2nc(NCCc3ccccc3)ncc2c(=O)n1-c1cccc(F)c1
12 | 142 µM | CN(CCc1cccc(F)c1)c1ncc2c(=O)n(-c3cccc(F)c3)c(=O)[nH]c2n1
13 | 184 µM | COc1ccc(CCN(C)c2ncc3c(=O)n(-c4cccc(F)c4)c(=O)[nH]c3n2)cc1OC
14 | 54 µM | COc1ccc(CCNc2ncc3c(=O)n(-c4cccc(F)c4)c(=O)[nH]c3n2)cc1F
15 | 101 µM | O=c1[nH]c2nc(NCCc3ccc(O)c(F)c3)ncc2c(=O)n1-c1cccc(F)c1
16 | 33 µM | O=c1[nH]c2nc(NCCc3ccc(F)c(F)c3)ncc2c(=O)n1-c1cccc(F)c1
17 | 20 µM | O=c1[nH]c2nc(NCC3CCCc4c(F)cccc43)ncc2c(=O)n1-c1cccc(F)c1 (stereo not drawn)

Row | IC50 | SMILES
18 | 21 µM | O=c1[nH]c2nc(NCc3cccc4c(F)cccc34)ncc2c(=O)n1-c1cccc(F)c1
19 | 34 µM | O=c1[nH]c2nc(N3CCc4cc(F)ccc4C3)ncc2c(=O)n1-c1cccc(F)c1
20 | 249 µM | O=c1[nH]c2nc(NCCc3cccc(F)c3)ncc2c(=O)n1-c1cc(F)ccc1F
21 | 27 µM | COc1c(F)cccc1-n1c(=O)[nH]c2nc(NCCc3cccc(F)c3)ncc2c1=O
22 | 11 µM | COc1ccc(-n2c(=O)[nH]c3nc(NCCc4cccc(F)c4)ncc3c2=O)cc1F
23 | 11 µM | CCOC(=O)c1cccc(-n2c(=O)[nH]c3nc(NCCc4cccc(F)c4)ncc3c2=O)c1
24 | 22 µM | COc1ccc(-n2c(=O)[nH]c3nc(NCCc4cccc(F)c4)ncc3c2=O)cc1OC
25 | 10 µM | O=c1[nH]c2nc(NCCc3cccc(F)c3)ncc2c(=O)n1Cc1ccccc1F
26 | 43 µM | O=c1[nH]c2nc(NCCc3cccc(F)c3)ncc2c(=O)n1-c1nccs1
27 | 45 µM | O=c1[nH]c2nc(NCCc3cccc(F)c3)ncc2c(=O)n1CC1CCNCC1
28 | 5.3 µM | CC(C)Cn1c(=O)[nH]c2nc(NCCc3cccc(F)c3)ncc2c1=O
29 | 8.8 µM | O=c1[nH]c2nc(NCCc3cccc(F)c3)ncc2c(=O)n1CCO
30 | 6.9 µM | NS(=O)(=O)c1ccc(-n2c(=O)[nH]c3nc(NCCc4cccc(F)c4)ncc3c2=O)cc1
31 | 6.9 µM | O=c1[nH]c2nc(NCCc3cccc(F)c3)ncc2c(=O)n1-c1ccc(N2CCOCC2)c(F)c1
32 | 7.6 µM | O=c1[nH]c2nc(NCCc3cccc(F)c3)ncc2c(=O)n1-c1ccc(Br)cc1
33 | 20 µM | CSc1ncc2c(=O)n(-c3ccc(Br)cc3)c(=O)[nH]c2n1
